Source: patent US20230060873A1, “COMPOUNDS AND METHODS FOR FORMING ION CHANNELS IN BIOLOGICAL MEMBRANES” (Washington University, priority 2021, published 2023)
Values after ≈ are worked out from the molar mass of the structure shown.

What was measured:
HEK293T cells = type: cell-based; conditions: human, 48 h
Experimental: (§1) The cyto-toxicity was determined by measuring the minimum inhibitory concentrations (MIC) for this series of dialkylated lariat ethers in the Gram-negative bacteria Escherichia coli, the Gram-positive bacteria Bacillus subtilis, and human embryonic kidney (HEK293T) cells.
On HEK293T cells. Human embryonic kidneys (HEK293T) cells (Thermofisher Scientific) were grown attached in cell culture dishes, detached by trypsin treatment and diluted in Dulbecco's Modified Eagle's Medium (DMEM) medium supplemented with phenol red indicator (Thermofisher scientific) until the density reached 100,000 viable cells/mL. An aliquot of 1 mL of this cell suspension was added to each well of a 24-wells culture plate. After 2 h, when the cells were already attached, a custom amount of 400, 100, 10 or 5 mM TFE solution of the dialkylated diaza(18-crown-6) ether compounds were added until final concentration of 400, 200, 100, 50, 20, 15, 10, 8, 6, 5, 4, 3, 2 or 1 μM were reached. The final TFE concentration never was over 0.1% v/v. Negative controls in the presence of TFE 0.1% v/v or the absence of any treatment were done for each plate. The plates were cultured at 37° C. The MIC was determined as the lowest compound concentration that killed all the cells after 48 h, as judged by trypan blue dye. […]

Bacillus subtilis = test: Toxicity (MIC) of dialkylated lariat ethers on B. subtilis; type: cell-based; conditions: B. subtilis 168 WT, 12 h, visual turbidity, read-out: minimum inhibitory concentration (MIC)
Experimental: as §1
On bacteria. XL1 blue strain Escherichia coli cells transformed with a pET28a plasmid (which contains a kanamycin resistance gene) were grown at 37° C. in 2 mL of LB medium (Miller's LB broth, Research Products International) supplemented with 50 μg/mL of kanamycin until the optical density (600 nm) reached 0.600. The starting density of bacteria in the remainder of the experiments was a 1/100 dilution of this bacterial density, which was split into 4 mL cultures. A series of 400, 100, 10 and 5 mM stock solutions of each dialkylated diaza(18-crown-6) compounds in trifluoroethanol (TFE) were diluted by adding to the 4 mL cultures until final concentrations of 400, 200, 100, 50, 20, 15, 10, 5, 4, 3, 2 and 1 μM were reached, with the final TFE concentration never >0.1% v/v. Negative controls in the presence of TFE 0.1% v/v or the absence of any treatment were done for each batch. The cultures were incubated at 37° C. with agitation for 12 h. Bacillus subtilis (168 WT) toxicity tests were carried out using an identical protocol, except for the addition of the antibiotic. […] Each compound was assayed a minimum of three times at each tested concentration.

B. subtilis cells = test: Lactate dehydrogenase release (resofurin fluorescence), MAcBCE/MAkBCE and controls; type: cell-based, Bacillus subtilis; conditions: 2 μM, 37° C, potassium lactate/NAD+ solution
Experimental: A 2 mL liquid culture of transformed B. subtilis cells was grown at 37° C. in LB media supplemented with […] kanamycin, until OD600=0.6. Cells were collected by centrifugation at 2000 rpm over 3 min. The bacterial pellet was washed twice in lactate/NAD^+ solution (95 mM potassium lactate, 10 mM nicotinamide adenine dinucleotide (NAD^+), 10 mM HEPES, pH adjusted to 7.4 with KOH). After the last centrifugation step, the bacteria were resuspended until OD600=1.0 in the lactate/NAD^+ solution, then diluted 100× in the same solution. The working fluorophore solution was a 1 mM of resazurin sodium salt (Alfa Cesar) in water. The experiment was started with 3 mL of lactate/NAD^+ solution in a quartz cuvette, then 3.1 μL of resazurin solution was added (timepoint t1, 50 sec) for a 1 μM final concentration, followed by the addition of 100 μL of the diluted B. subtilis suspension (timepoint t2, 100 sec). After 150 sec (timepoint t3, 250 sec), 10 μL of diaphorase (Worthinton Biochemical Corporation) 10 mg/mL solution was added. The final step involved the addition of 0.62 μL of a 10 mM stock solution of dialkylated diaza lariat ether (LEC10) in TFE (timepoint t4, 400 sec), for a final LEC10 concentration of 2 μM; or 3.1 μL of a 2 mM stock solution of valinomycin in DMSO, for a final valinomycin concentration of 2 μM; or 3.1 μL of a 20 mg/mL stock solution of lysozyme in lactate/NAD^+ solution, for a final lysozyme concentration of 20 μg/mL; or 3.1 μL of 10 mM stock solution of each MAcBCE or MAkBCE compounds in TFE, for final concentrations of 10 μM. Fluorescence intensity was recorded each second using a Horiba Fluoromax 4 spectrometer (λexcitation=550 nm; λemission=583 nm). […] To normalize, the fluorescence intensity was divided by the fluorescence level just before timepoint t4. […]
Experiments were repeated at least three times per condition. To normalize, the fluorescence intensity was divided by the fluorescence level just before timepoint t4.

CCCCCCCCCCN1CCOCCOCCN(CCCCCCCCCC)CCOCCOCC1 [LEC10, Didecyl diaza(18-crown-6)]
minimum inhibitory concentration (MIC) (HEK293T cells): 6 µM (≈ 3.26 µg/mL) | MIC (Bacillus subtilis): 2 µM (≈ 1.09 µg/mL) | resofurin fluorescence (LDH release) (B. subtilis cells): increase in the resofurin fluorescence levels
